# In patent US7741354B2, “Inhibitors of glutaminyl cyclase” (Probiodrug AG, priority 2006, dated 2010):
# Biological target: hQC (Homo sapiens, UniProt Q16769)
# Assay: Fluorometric (fluorescent) assay of hQC inhibition, IC50
# Assay type: biochemical
# Conditions: hQC inhibition; read-out: IC50
# Procedure: All compounds were immediately tested regarding their activity as hQC inhibitors.
# The purity of the compounds was determined by HPLC-MS. The IC50 value against hQC was measured using the fluorescent assay.
# All measurements were performed with a BioAssay Reader HTS-7000Plus for microplates (Perkin Elmer) at 30° C. QC activity was evaluated fluorometrically using H-Gln-βNA. The samples consisted of 0.2 mM fluorogenic substrate, 0.25 U pyroglutamyl aminopeptidase (Unizyme, Horsholm, Denmark) in 0.2 M Tris/HCl, pH 8.0 containing 20 mM EDTA and an appropriately diluted aliquot of QC in a final volume of 250 μl. Excitation/emission wavelengths were 320/410 nm. The assay reactions were initiated by addition of glutaminyl cyclase. QC activity was determined from a standard curve of β-naphthylamine under assay conditions. One unit is defined as the amount of QC catalyzing the formation of 1 μmol pGlu-βNA from H-Gln-βNA per minute under the described conditions.
# In a second fluorometric assay, QC was activity determined using H-Gln-AMC as substrate. Reactions were carried out at 30° C. utilizing the NOVOStar reader for microplates (BMG labtechnologies). The samples consisted of varying concentrations of the fluorogenic substrate, 0.1 U pyroglutamyl aminopeptidase (Qiagen) in 0.05 M Tris/HCl, pH 8.0 containing 5 mM EDTA and an appropriately diluted aliquot of QC in a final volume of 250 μl. Excitation/emission wavelengths were 380/460 nm. The assay reactions were initiated by addition of glutaminyl cyclase. QC activity was determined from a standard curve of 7-amino-4-methylcoumarin under assay conditions. The kinetic data were evaluated using GraFit sofware.
# For inhibitor testing, the sample composition was the same as described above, except of the putative inhibitory compound added. For a rapid test of QC-inhibition, samples contained 4 mM of the respective inhibitor and a substrate concentration at 1 KM. For detailed investigations of the inhibition and determination of Ki-values, influence of the inhibitor on the auxiliary enzymes was investigated first. […] The inhibitory constant was evaluated by fitting the set of progress curves to the general equation for competitive inhibition using GraFit software.
# Chain of hQC (Q16769 29-361): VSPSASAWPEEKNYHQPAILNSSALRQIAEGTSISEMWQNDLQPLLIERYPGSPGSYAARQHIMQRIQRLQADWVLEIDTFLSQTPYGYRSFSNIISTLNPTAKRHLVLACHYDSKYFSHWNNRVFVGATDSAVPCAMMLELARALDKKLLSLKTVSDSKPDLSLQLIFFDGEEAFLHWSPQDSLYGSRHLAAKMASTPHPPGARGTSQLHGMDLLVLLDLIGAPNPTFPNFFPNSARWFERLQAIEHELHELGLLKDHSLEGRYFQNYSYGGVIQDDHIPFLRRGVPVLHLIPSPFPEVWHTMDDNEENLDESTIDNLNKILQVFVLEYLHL
row,SMILES,IC50 [µM]
1,c1ccc(Cn2nnnc2C(Nc2ccc3[nH]cnc3c2)c2ccc3nsnc3c2)cc1 (stereo not shown) [compound 147],1.3
2,"c1ccc(C(c2ccccc2)n2nnnc2C(Nc2ccc3[nH]cnc3c2)c2cccnc2)cc1 (stereo not shown) [compound 158, [(1-Benzhydryl-1H-tetrazol-5-yl)-pyridin-3-yl-methyl]-(1H-benzoimidazol-5-yl)-amine]",9.4
3,CCOC(=O)C1CCCCC1n1nnnc1C(Nc1ccc2[nH]cnc2c1)c1ccc(SC)cc1 (stereo not shown) [compound 150],4
4,CC(C)(C)n1nnnc1C(Nc1ccc2[nH]cnc2c1)c1csc2ccccc12 (stereo not shown) [compound 123],8.5
5,CCOC(=O)C1CCCCC1n1nnnc1C(CC(C)c1ccc(C)o1)Nc1ccc2[nH]cnc2c1 (stereo not shown) [compound 202],6.7
6,c1csc(CCn2nnnc2C(Nc2ccc3[nH]cnc3c2)c2ccc3nsnc3c2)c1 (stereo not shown) [compound 181],0.4
7,CCOC(=O)C1CCCCC1n1nnnc1C(Nc1ccc2[nH]cnc2c1)c1ccc(OC)cc1 (stereo not shown) [compound 184],5.8
8,"Clc1ccccc1Cn1nnnc1C(Nc1ccc2[nH]cnc2c1)c1cccnc1 (stereo not shown) [compound 135, (1H-Benzoimidazol-5-yl)-{[1-(2-chloro-benzyl)-1H-tetrazol-5-yl]-pyridin-3-yl-methyl}-amine]",8.5
9,CCOC(=O)C1CCCCC1n1nnnc1C(Nc1ccc2[nH]cnc2c1)c1ccccc1OC (stereo not shown) [compound 183],8.5
10,"O=C(Cn1nnnc1C(Nc1ccc2[nH]cnc2c1)c1cccs1)N1CCc2ccccc2C1 (stereo not shown) [compound 120, 2-{5-[(1H-Benzoimidazol-5-ylamino)-thiophen-2-yl-methyl]-tetrazol-1-yl}-1-(3,4-dihydro-1H-isoquinolin-2-yl)-ethanone]",8.5
11,"CC(Cc1ccc2c(c1)OCO2)C(Nc1ccc2[nH]cnc2c1)c1nnnn1C1CCCCC1 (stereo not shown) [compound 116, [3-Benzo[1,3]dioxol-5-yl-1-(1-cyclohexyl-1H-tetrazol-5-yl)-2-methyl-propyl]-(1H-benzoimidazol-5-yl)-amine]",7.6
12,"c1nc2cc(NC(c3ccc(N4CCCC4)cc3)c3nnnn3CC3CCCO3)ccc2[nH]1 (stereo not shown) [compound 134, (1H-Benzoimidazol-5-yl)-{(4-pyrolidin-1-yl-phenyl)-[1-(tetrahydro-furan-2-ylmethyl)-1H-tetrazol-5-yl]-methyl}-amine]",6.7
13,COc1ccccc1C(Nc1ccc2[nH]cnc2c1)c1nnnn1Cc1ccccc1Cl (stereo not shown) [compound 153],3.1
14,"COc1ccc(C(Nc2ccc3[nH]cnc3c2)c2nnnn2-c2ccccc2OCc2ccccc2)cc1 (stereo not shown) [compound 210, (1H-Benzoimidazol-5-yl)-[[1-(2-benzyloxy-phenyl)-1H-tetrazol-5-yl]-(4-methoxy-phenyl)-methyl]-amine]",2.2

# Same assay, conditions: purified compound from preparative synthesis; fluorescent assay; read-out: IC50 hQC
row,SMILES,IC50 [µM]
1,"C1=COC(C(NCCCn2ccnc2)c2nnnn2C2CCCC2)CC1 (stereo not shown) [Compound 28, [(1-Cyclopentyl-1H-tetrazol-5-yl)-(3,4-dihydro-2H-pyran-2-yl)-methyl]-(3-imidazol-1-yl-propyl)-amine]",3.47
2,"Cc1ccc(O)c(C(NCCCn2ccnc2)c2nnnn2Cc2ccc(Cl)cc2)c1 (stereo not shown) [Compound 3, 2-[[1-(4-Chloro-benzyl)-1H-tetrazol-5-yl]-(3-imidazol-1-yl-propylamino)-methyl]-4-methyl-phenol]",0.584

# Same assay, conditions: read-out: IC50
row,SMILES,IC50 [µM]
1,"C/C=C/C=C/C(Nc1ccc2[nH]cnc2c1)c1nnnn1CC1COC(C)(C)O1 (stereo not shown) [compound 92, (1H-Benzoimidazol-5-yl)-{(2E,4E)-1-[1-(2,2-dimethyl-[1,3]dioxolan-4-ylmethyl)-1H-tetrazol-5-yl]-hexa-2,4-dienyl}-amine]",4.9
2,"c1ccc2nc(C(NCCCn3ccnc3)c3nnnn3C3CC3)ccc2c1 (stereo not shown) [compound 70, [(1-Cyclopropyl-1H-tetrazol-5-yl)-quinolin-2-yl-methyl]-(3-imidazol-1-yl-propyl)-amine]",5.8
3,"CC(c1ccccc1)C(Nc1ccc2[nH]cnc2c1)c1nnnn1CC1CCCO1 (stereo not shown) [compound 100, (1H-Benzoimidazol-5-yl)-{2-phenyl-1-[1-(tetrahydro-furan-2-ylmethyl)-1H-tetrazol-5-yl]-propyl}-amine]",7.6
4,"C1=COC(C(NCCCn2ccnc2)c2nnnn2C2CCCC2)CC1 (stereo not shown) [Compound 28, [(1-Cyclopentyl-1H-tetrazol-5-yl)-(3,4-dihydro-2H-pyran-2-yl)-methyl]-(3-imidazol-1-yl-propyl)-amine]",0.4
5,"COc1ccc(C(Nc2ccc3[nH]cnc3c2)c2nnnn2CC2CCCO2)cc1Br (stereo not shown) [compound 109, (1H-Benzoimidazol-5-yl)-{(3-bromo-4-methoxy-phenyl)-[1-(tetrahydro-furan-2-ylmethyl)-1H-tetrazol-5-yl]-methyl}-amine]",1.3
6,"CC(C)(C)Cn1nnnc1C(NCCCn1ccnc1)c1ccc2[nH]ccc2c1 (stereo not shown) [compound 65, [[1-(2,2-Dimethyl-propyl)-1H-tetrazol-5-yl]-(1H-indol-5-yl)-methyl]-(3-imidazol-1-yl-propyl)-amine]",4.9
7,"Cc1cc(C)c(C(NCCCn2ccnc2)c2nnnn2C[C@@H]2CCCO2)cc1C (stereo partly drawn) [compound 17, (3-Imidazol-1-yl-propyl)-[{1-[(S)-1-(tetrahydro-furan-2-yl)methyl]-1H-tetrazol-5-yl}-(2,4,5-trimethyl-phenyl)-methyl]-amine]",4
8,CCOC(=O)C1CC1C(Nc1ccc2[nH]cnc2c1)c1nnnn1CCc1cccs1 (stereo not shown) [compound 104],4
9,"Cc1ccc(O)c(C(NCCCn2ccnc2)c2nnnn2C[C@@H]2CCCO2)c1 (stereo partly drawn) [compound 11, 2-((3-Imidazol-1-yl-propylamino)-{1-[(S)-1-(tetrahydro-furan-2-yl)methyl]-1H-tetrazol-5-yl}-methyl)-4-methyl-phenol]",3.1
10,"C1=CO[C@H](C(NCCCn2ccnc2)c2nnnn2C2CC2)CC1 (stereo partly drawn) [compound 71, [(S)-(1-Cyclopropyl-1H-tetrazol-5-yl)-3,4-dihydro-2H-pyran-2-yl-methyl]-(3-imidazol-1-yl-propyl)-amine]",9.4
11,"COC(=O)Cn1nnnc1C(NCCCn1ccnc1)c1cc(C)ccc1O (stereo not shown) [compound 51, {5-[(2-Hydroxy-5-methyl-phenyl)-(3-imidazol-1-yl-propylamino)-methyl]-tetrazol-1-yl}-acetic methyl ester]",2.2
12,"CC1=CCCC[C@@H]1C(NCCCn1ccnc1)c1nnnn1Cc1ccc(Cl)cc1 (stereo partly drawn) [compound 8, [[1-(4-Chloro-benzyl)-1H-tetrazol-5-yl]-((S)-2-methyl-cyclohex-2-enyl)-methyl]-(3-imidazol-1-yl-propyl)-amine]",4
13,"CN(C)c1ccc(C(Nc2ccc3[nH]cnc3c2)c2nnnn2CC2CCCO2)cc1 (stereo not shown) [compound 108, (1H-Benzoimidazol-5-yl)-{(4-dimethylamino-phenyl)-[1-(tetrahydro-furan-2-ylmethyl)-1H-tetrazol-5-yl]-methyl}-amine]",5.8
14,C1=COC(C(Nc2ccc3[nH]cnc3c2)c2nnnn2C2CCCCC2)CC1 (stereo not shown) [compound 114],6.7
15,"CC(CC(Nc1ccc2[nH]cnc2c1)c1nnnn1CC1CCCO1)c1ccccc1 (stereo not shown) [compound 97, (1H-Benzoimidazol-5-yl)-{3-phenyl-1-[1-(tetrahydro-furan-2-ylmethyl)-1H-tetrazol-5-yl]-butyl}-amine]",4
16,"CC(C)(C)OC(=O)Cn1nnnc1C(Nc1ccc2[nH]cnc2c1)c1ccc(Br)cc1 (stereo not shown) [compound 87, {5-[(1H-Benzoimidazol-5-ylamino)-(4-bromo-phenyl)-methyl]-tetrazol-1-yl}-acetic acid tert-butyl ester]",1.3
17,"Cc1ccc(O)c(C(NCCCn2ccnc2)c2nnnn2Cc2ccc(Cl)cc2)c1 (stereo not shown) [Compound 3, 2-[[1-(4-Chloro-benzyl)-1H-tetrazol-5-yl]-(3-imidazol-1-yl-propylamino)-methyl]-4-methyl-phenol]",0.4
18,"CCCCn1nnnc1C(NCCCn1ccnc1)c1ccc2[nH]ccc2c1 (stereo not shown) [compound 21, [(1-Butyl-1H-tetrazol-5-yl)-(1H-indol-5-yl)-methyl]-(3-imidazol-1-yl-propyl)-amine]",6.7
